Results from US10781224B2, “Bis(oxymethyl)phosphinic acid and biogenic metal salts thereof as regulators of plant growth and development” (priority 2016, dated 2020).

Tests used:
[1] = system: winter wheat (Vershin variety); test: Winter wheat seed treatment with BHMPA salts: germination energy and germination rate; format: in vivo
How it was run: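 Corn, winter wheat and rice seeds (50 per dish, on filter paper) were soaked for 1 h in BHMPA or its metal salts at 1·10^−6-1·10^−12%, with water as control. Germination energy was read on day 4 and germination rate on day 8 for wheat and day 7 for rice and corn, following GOST 12038-84, as the mean of four replicates.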

[2] = system: corn (Krasnodar 385 MV variety); test: Corn seed treatment with BHMPA salts: germinating power; format: in vivo
How it was run: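 Seeds (50 per Petri dish on two layers of filter paper) soaked 1 h in BHMPA or its Ca, Mg, Na, Co, Mn, Cu or Zn salts at 1·10^−6-1·10^−12%, with water controls. Germination energy read on day 4, germination on day 8 (wheat) or day 7 (rice, corn), as % means of four replicates. Germinating power taken as root and sprout length plus wet and dry mass per 100 seedlings.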

[3] = winter wheat Vershin, 1·10^−6% solution
[4] = winter wheat Vershin, 1·10^−7% solution
[5] = winter wheat Vershin, 1·10^−8% solution
[6] = winter wheat Vershin, 1·10^−9% solution
[7] = winter wheat Vershin, 1·10^−10% solution
[8] = winter wheat Vershin, 1·10^−11% solution
[9] = winter wheat Vershin, 1·10^−12% solution
[10] = winter wheat, comparative study vs Melaphen, 1·10^−9% solution
[11] = corn seeds, solution concentration 1 · 10^−6%, manganese salt of BHMPA
[12] = corn seeds, solution concentration 1 · 10^−7%, manganese salt of BHMPA
[13] = corn seeds, solution concentration 1 · 10^−8%, manganese salt of BHMPA
[14] = corn seeds, solution concentration 1 · 10^−9%, manganese salt of BHMPA
[15] = corn seeds, solution concentration 1 · 10^−10%, manganese salt of BHMPA
[16] = corn seeds, solution concentration 1 · 10^−11%, manganese salt of BHMPA
[17] = corn seeds, solution concentration 1 · 10^−12%, manganese salt of BHMPA

O.O.O=P([O-])(CO)CO.O=P([O-])(CO)CO.[Mn+2] [Mn-salt, Manganese BHMPA Salt]
Germination energy [1, 3]: 72.0%
Germination rate [1, 3]: 69.3%
Germination energy [1, 4]: 73.6%
Germination rate [1, 4]: 76.0%
Germination energy [1, 5]: 77.9%
Germination rate [1, 5]: 82.7%
Germination energy [1, 6]: 85.5%
Germination rate [1, 6]: 88.7%
Germination energy [1, 7]: 83.0%
Germination rate [1, 7]: 85.3%
Germination energy [1, 8]: 76.1%
Germination rate [1, 8]: 78.8%
Germination energy [1, 9]: 71.6%
Germination rate [1, 9]: 74.0%
Germination energy [1, 10]: 88.0%
Germination rate [1, 10]: 93.7%
optimum concentration for treating corn seeds before sowing ([2]; corn): 1·10^−9%
Length, root [2, 11]: 4.6 cm
Length, root, + % to control [2, 11]: −4%
Length, sprout [2, 11]: 2.8 cm
Length, sprout, + % to control [2, 11]: −18%
Mass, dry, root [2, 11]: 1.47 g/100 plantlings
Mass, dry, root, + % to control [2, 11]: 6%
Mass, dry, sprout [2, 11]: 0.83 g/100 plantlings
Mass, dry, sprout, + % to control [2, 11]: 5%
Mass, wet, root [2, 11]: 9.87 g/100 plantlings
Mass, wet, root, + % to control [2, 11]: 12%
Mass, wet, sprout [2, 11]: 5.92 g/100 plantlings
Mass, wet, sprout, + % to control [2, 11]: 0%
Length, root [2, 12]: 5.0 cm
Length, root, + % to control [2, 12]: 4%
Length, sprout [2, 12]: 3.1 cm
Length, sprout, + % to control [2, 12]: −9%
Mass, dry, root [2, 12]: 1.55 g/100 plantlings
Mass, dry, root, + % to control [2, 12]: 11.5%
Mass, dry, sprout [2, 12]: 0.89 g/100 plantlings
Mass, dry, sprout, + % to control [2, 12]: 13%
Mass, wet, root [2, 12]: 10.61 g/100 plantlings
Mass, wet, root, + % to control [2, 12]: 20%
Mass, wet, sprout [2, 12]: 6.63 g/100 plantlings
Mass, wet, sprout, + % to control [2, 12]: 12%
Length, root [2, 13]: 5.4 cm
Length, root, + % to control [2, 13]: 12.5%
Length, sprout [2, 13]: 3.6 cm
Length, sprout, + % to control [2, 13]: 6%
Mass, dry, root [2, 13]: 1.69 g/100 plantlings
Mass, dry, root, + % to control [2, 13]: 21.5%
Mass, dry, sprout [2, 13]: 1.05 g/100 plantlings
Mass, dry, sprout, + % to control [2, 13]: 33%
Mass, wet, root [2, 13]: 11.92 g/100 plantlings
Mass, wet, root, + % to control [2, 13]: 35%
Mass, wet, sprout [2, 13]: 7.03 g/100 plantlings
Mass, wet, sprout, + % to control [2, 13]: 19%
Length, root [2, 14]: 5.8 cm
Length, root, + % to control [2, 14]: 21%
Length, sprout [2, 14]: 3.9 cm
Length, sprout, + % to control [2, 14]: 15%
Mass, dry, root [2, 14]: 1.82 g/100 plantlings
Mass, dry, root, + % to control [2, 14]: 31%
Mass, dry, sprout [2, 14]: 1.25 g/100 plantlings
Mass, wet, root [2, 14]: 12.62 g/100 plantlings
Mass, wet, root, + % to control [2, 14]: 43%
Mass, wet, sprout [2, 14]: 7.69 g/100 plantlings
Mass, wet, sprout, + % to control [2, 14]: 30%
Length, root [2, 15]: 5.5 cm
Length, root, + % to control [2, 15]: 14.5%
Length, sprout [2, 15]: 3.7 cm
Length, sprout, + % to control [2, 15]: 9%
Mass, dry, root [2, 15]: 1.72 g/100 plantlings
Mass, dry, root, + % to control [2, 15]: 24%
Mass, dry, sprout [2, 15]: 1.17 g/100 plantlings
Mass, dry, sprout, + % to control [2, 15]: 48%
Mass, wet, root [2, 15]: 12.06 g/100 plantlings
Mass, wet, root, + % to control [2, 15]: 36.5%
Mass, wet, sprout [2, 15]: 7.29 g/100 plantlings
Mass, wet, sprout, + % to control [2, 15]: 23.5%
Length, root [2, 16]: 5.3 cm
Length, root, + % to control [2, 16]: 10%
Length, sprout [2, 16]: 3.4 cm
Length, sprout, + % to control [2, 16]: 0%
Mass, dry, root [2, 16]: 1.61 g/100 plantlings
Mass, dry, root, + % to control [2, 16]: 16%
Mass, dry, sprout [2, 16]: 0.92 g/100 plantlings
Mass, dry, sprout, + % to control [2, 16]: 16%
Mass, wet, root [2, 16]: 11.78 g/100 plantlings
Mass, wet, root, + % to control [2, 16]: 33%
Mass, wet, sprout [2, 16]: 6.91 g/100 plantlings
Mass, wet, sprout, + % to control [2, 16]: 17%
Length, root [2, 17]: 4.9 cm
Length, root, + % to control [2, 17]: 2%
Length, sprout [2, 17]: 2.9 cm
Length, sprout, + % to control [2, 17]: −15%
Mass, dry, root [2, 17]: 1.47 g/100 plantlings
Mass, dry, root, + % to control [2, 17]: 6%
Mass, dry, sprout [2, 17]: 0.79 g/100 plantlings
Mass, dry, sprout, + % to control [2, 17]: 0%
Mass, wet, root [2, 17]: 10.88 g/100 plantlings
Mass, wet, root, + % to control [2, 17]: 23%
Mass, wet, sprout [2, 17]: 6.28 g/100 plantlings
Mass, wet, sprout, + % to control [2, 17]: 6%
effectiveness on germinating power ([2]; corn, 1·10^−6%, 1·10^−7%, 1·10^−11% and 1·10^−12% solutions): ineffective
Length, root, + % to control ([2]; corn, 1·10^−9% solution): 21%
Length, sprout, + % to control ([2]; corn, 1·10^−9% solution): 15%
Mass, dry, root, + % to control ([2]; corn, 1·10^−9% solution): 31%
Mass, dry, sprout, + % to control ([2]; corn, 1·10^−9% solution): 58%
Mass, wet, root, + % to control ([2]; corn, 1·10^−9% solution): 43%
Mass, wet, sprout, + % to control ([2]; corn, 1·10^−9% solution): 30%
